Measured values as given in patent US9049863B2, “Substituted (3R,4R)-4-cyan-3,4-diphenylbutanoates, method for the production thereof and use thereof as herbicides and plant growth regulators” (Bayer Intellectual Property GmbH, priority 2011, dated 2015).

tested on: a plurality of harmful plants; experiment: Herbicidal pre-emergence action; type: in vivo; settings: 320 g or less of active substance per hectare
Text: Seeds of monocotyledonous and dicotyledonous weed plants and crop plants are placed in wood-fiber pots in sandy loam and covered with soil. The compounds (I) according to the invention, formulated in the form of wettable powders (WP), are then applied as aqueous suspension or emulsion at a water application rate of 600 l/ha (converted) with the addition of 0.2% of wetting agent to the surface of the covering soil.
After the treatment, the pots are placed in a greenhouse and kept under good growth conditions for the test plants. After about 3 weeks, the effect of the preparations is scored visually in comparison with untreated controls as percentages. For example, 100% activity=the plants have died, 50% herbicidal activity or damage=the plants have been reduced by 50% or the plant mass has been reduced by 50%, 0% activity=like control plants.

Compound | herbicidal activity against a plurality of harmful plants
COC(=O)C[C@@H](c1cc(F)ccc1F)[C@@H](C#N)c1cccc(C#N)c1 [Example 330] | good herbicidal activity
COC(=O)C[C@@H](c1cccc(F)c1)[C@@H](C#N)c1cccc(Br)c1 [Example 11] | good herbicidal activity
COC(=O)C[C@@H](c1cccc(Cl)c1)[C@@H](C#N)c1cccc(F)c1 [Example 9] | good herbicidal activity
CCOC(=O)C[C@@H](c1cccc(F)c1)[C@@H](C#N)c1ccc(F)c(F)c1 [Example 83] | good herbicidal activity
COC(=O)C[C@@H](c1ccc(Cl)cc1)[C@@H](C#N)c1ccc(F)c(F)c1 [Example 3] | good herbicidal activity
N#C[C@@H](c1cccc(F)c1)[C@@H](CC(=O)OCC[S+]([O-])c1ccccc1)c1ccc(Cl)cc1 (some centres unmarked) [Example 55] | good herbicidal activity
COC(=O)C[C@@H](c1ccc(Cl)cc1)[C@@H](C#N)c1cccc(C#N)c1 [Example 329] | good herbicidal activity
COC(=O)C[C@@H](c1cc(F)ccc1F)[C@@H](C#N)c1ccc(F)c(F)c1 [Example 25] | good herbicidal activity
COC(=O)C[C@@H](c1ccccc1F)[C@@H](C#N)c1cccc(F)c1 [Example 13] | good herbicidal activity
COC(=O)C[C@@H](c1cccc(Cl)c1)[C@@H](C#N)c1ccc(F)c(C#N)c1 [Example 340] | good herbicidal activity
CC(C)COC(=O)C[C@@H](c1cccc(F)c1)[C@@H](C#N)c1ccc(F)c(F)c1 [Example 87] | good herbicidal activity
COC(=O)C[C@@H](c1cc(F)cc(Cl)c1)[C@@H](C#N)c1cccc(Cl)c1 [Example 26] | good herbicidal activity
CCCOC(=O)C[C@@H](c1cccc(F)c1)[C@@H](C#N)c1ccc(F)c(F)c1 [Example 84] | good herbicidal activity
COC(=O)C[C@@H](c1cccc(F)c1)[C@@H](C#N)c1ccccc1 [Example 7] | good herbicidal activity
COC(=O)C[C@@H](c1ccc(Cl)c(F)c1)[C@@H](C#N)c1ccc(F)c(F)c1 [Example 16] | good herbicidal activity
N#C[C@@H](c1ccc(F)c(F)c1)[C@@H](CC(=O)O)c1cccc(Cl)c1 [Example 107, (3R,4R)-3-(3-Chlorophenyl)-4-cyano-4-(3,4-difluorophenyl)butanoic acid] | good herbicidal activity
COC(=O)C[C@@H](c1cccc(F)c1F)[C@@H](C#N)c1cccc(F)c1 [Example 18] | good herbicidal activity
COC(=O)C[C@@H](c1cccc(F)c1)[C@@H](C#N)c1ccc(F)cc1 [Example 8] | good herbicidal activity
COC(=O)C[C@@H](c1cc(F)ccc1F)[C@@H](C#N)c1ccc(Cl)c(Cl)c1 [Example 208] | good herbicidal activity
COC(=O)C[C@@H](c1cccc(F)c1)[C@@H](C#N)c1cccc(Cl)c1 [Example 5] | good herbicidal activity
N#C[C@@H](c1cccc(F)c1)[C@@H](CC(=O)OC1COC1)c1ccc(Cl)cc1 [Example 53] | good herbicidal activity
COC(=O)C[C@@H](c1cccc(F)c1)[C@@H](C#N)c1cccc(F)c1 [Example 2] | good herbicidal activity
COC(=O)C[C@@H](c1ccccc1)[C@@H](C#N)c1ccc(F)c(F)c1 [Example 29] | good herbicidal activity
COC(=O)C[C@@H](c1cc(F)ccc1F)[C@@H](C#N)c1ccc(F)c(C#N)c1 [Example 344] | good herbicidal activity
COC(=O)C[C@@H](c1ccccc1F)[C@@H](C#N)c1ccc(F)c(F)c1 [Example 17] | good herbicidal activity
COC(=O)C[C@@H](c1ccc(Cl)cc1)[C@@H](C#N)c1ccc(F)c(C#N)c1 [Example 343] | good herbicidal activity
COC(=O)C[C@@H](c1cccc(F)c1)[C@@H](C#N)c1ccc(F)c(C#N)c1 [Example 339] | good herbicidal activity

Compound | herbicidal activity against a plurality of harmful plants
COC(=O)C[C@@H](c1cccc(Cl)c1)[C@@H](C#N)c1ccc(Cl)c(F)c1 [Example 27] | good herbicidal activity
COC(=O)C[C@@H](c1cccc([N+](=O)[O-])c1)[C@@H](C#N)c1ccc(F)c(F)c1 [Example 28] | good herbicidal activity
COC(=O)C[C@@H](c1cccc(F)c1)[C@@H](C#N)c1ccc(F)c(F)c1 [Example 6] | good herbicidal activity
COC(=O)C[C@@H](c1c(F)cccc1F)[C@@H](C#N)c1ccc(F)c(Cl)c1 [Example 227] | good herbicidal activity
COC(=O)C[C@@H](c1cccc(F)c1F)[C@@H](C#N)c1ccc(F)c(F)c1 [Example 24] | good herbicidal activity
CCCCOC(=O)C[C@@H](c1cccc(Cl)c1)[C@@H](C#N)c1ccc(F)c(F)c1 [Example 111] | good herbicidal activity
CC(C)COC(=O)C[C@@H](c1cccc(Cl)c1)[C@@H](C#N)c1ccc(F)c(F)c1 [Example 112] | good herbicidal activity
COC(=O)C[C@@H](c1cc(F)ccc1F)[C@@H](C#N)c1ccc(F)c(Br)c1 [Example 358] | good herbicidal activity
COC(=O)C[C@@H](c1cc(F)cc(Cl)c1)[C@@H](C#N)c1ccc(F)c(F)c1 [Example 21] | good herbicidal activity
COC(=O)C[C@@H](c1ccc(OC)c(F)c1)[C@@H](C#N)c1ccc(F)c(F)c1 [Example 390] | good herbicidal activity
COC(=O)C[C@@H](c1ccc(Cl)cc1)[C@@H](C#N)c1cc(F)c(F)c(F)c1 [Example 14] | good herbicidal activity
COC(=O)C[C@@H](c1cccc(F)c1)[C@@H](C#N)c1ccc(F)c(Cl)c1 [Example 30] | good herbicidal activity
CCOC(=O)C[C@@H](c1c(F)cccc1F)[C@@H](C#N)c1ccc(F)c(F)c1 [Example 283] | good herbicidal activity
COC(=O)C[C@@H](c1c(F)cccc1F)[C@@H](C#N)c1ccc(F)c(F)c1 [Example 174] | good herbicidal activity
CCOC(=O)C[C@@H](c1cccc(Cl)c1)[C@@H](C#N)c1ccc(F)c(F)c1 [Example 108] | good herbicidal activity
COC(=O)C[C@@H](c1cc(F)cc(F)c1)[C@@H](C#N)c1ccc(F)cc1 [Example 19] | good herbicidal activity
CCOC(=O)C[C@@H](c1ccc(OC)cc1)[C@@H](C#N)c1ccc(F)c(F)c1 [Example 31] | good herbicidal activity
COC(=O)C[C@@H](c1c(F)cccc1F)[C@@H](C#N)c1cccc(F)c1 [Example 162] | good herbicidal activity
COC(=O)C[C@@H](c1cccc(Cl)c1)[C@@H](C#N)c1cccc(C#N)c1 [Example 326] | good herbicidal activity
COC(=O)C[C@@H](c1c(F)cccc1F)[C@@H](C#N)c1ccc(F)c(Br)c1 [Example 359] | good herbicidal activity
COC(=O)C[C@@H](c1cccc(Cl)c1)[C@@H](C#N)c1ccc(F)cc1 [Example 15] | good herbicidal activity
COC(=O)C[C@@H](c1cccc(Cl)c1)[C@@H](C#N)c1ccc(F)c(F)c1 [Example 10, Methyl (3R,4R)-3-(3-chlorophenyl)-4-cyano-4-(3,4-difluorophenyl)butanoate] | good herbicidal activity
COC(=O)C[C@@H](c1ccc(Br)cc1)[C@@H](C#N)c1cccc(F)c1 [Example 4] | good herbicidal activity
COC(=O)C[C@@H](c1cc(F)cc(Cl)c1)[C@@H](C#N)c1cccc(F)c1 [Example 22] | good herbicidal activity
N#C[C@@H](c1cccc(F)c1)[C@@H](CC(=O)OCCSc1ccccc1)c1ccc(Cl)cc1 [Example 54] | good herbicidal activity
COC(=O)C[C@@H](c1cc(F)ccc1F)[C@@H](C#N)c1cccc(F)c1 [Example 23] | good herbicidal activity
